According to ChEMBL document CHEMBL5696442, “Discovery of type II inhibitors of TGFβ-activated kinase 1 (TAK1) and mitogen-activated protein kinase kinase kinase kinase 2 (MAP4K2)” (J Med Chem, 2015):

Tests used:
[1] = target: Ephrin type-A receptor 3 (Homo sapiens) (UniProt P29320); assay: Inhibition of EPHA3 (unknown origin) at 10 uM by Ambit Kinomescan binding assay relative to control
[2] = target: Mitogen-activated protein kinase 10 (Homo sapiens, UniProt P53779); assay: Inhibition of JNK3 (unknown origin) at 10 uM by Ambit Kinomescan binding assay relative to control
[3] = Inhibition of NEK6/7 K2 labeling site harbouring VMHRDIKPANVFITATGVVK in human Huh-7 cells at 1 uM by KiNativ Profiling analysis relative to control; conditions: condition cancer
[4] = target: T1, Inhibitor of nuclear factor kappa-B kinase subunit alpha (Homo sapiens) (UniProt O15111); assay: Inhibition of IKKa Lys2 labeling site in human A-375 cells at 5 uM by KiNativ Profiling analysis relative to control; assay type: cell-based
T1 sequence (whole entry): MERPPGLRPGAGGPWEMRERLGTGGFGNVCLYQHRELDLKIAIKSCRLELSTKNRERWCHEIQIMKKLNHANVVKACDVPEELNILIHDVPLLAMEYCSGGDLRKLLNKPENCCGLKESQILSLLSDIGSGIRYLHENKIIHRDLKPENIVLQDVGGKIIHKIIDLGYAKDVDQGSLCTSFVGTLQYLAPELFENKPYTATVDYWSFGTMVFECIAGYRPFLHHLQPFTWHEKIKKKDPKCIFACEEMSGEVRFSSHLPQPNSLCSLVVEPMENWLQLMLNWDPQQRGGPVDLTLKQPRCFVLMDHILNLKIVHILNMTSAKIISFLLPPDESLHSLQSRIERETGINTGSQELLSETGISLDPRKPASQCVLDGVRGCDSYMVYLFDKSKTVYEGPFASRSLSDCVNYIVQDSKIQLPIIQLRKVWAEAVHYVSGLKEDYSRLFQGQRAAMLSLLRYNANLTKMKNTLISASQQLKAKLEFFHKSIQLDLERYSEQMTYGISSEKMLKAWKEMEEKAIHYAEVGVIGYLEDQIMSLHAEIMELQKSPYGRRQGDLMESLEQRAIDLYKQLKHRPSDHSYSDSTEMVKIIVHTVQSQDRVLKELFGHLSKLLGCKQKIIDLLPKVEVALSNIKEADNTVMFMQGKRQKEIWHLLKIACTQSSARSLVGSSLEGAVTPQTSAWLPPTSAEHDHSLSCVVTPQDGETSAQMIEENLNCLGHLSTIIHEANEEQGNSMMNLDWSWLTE

[5] = target: Myosin light chain kinase, smooth muscle (Homo sapiens) (UniProt Q15746); assay: Inhibition of smMLCK K1 labeling site in human Huh-7 cells at 10 uM by KiNativ Profiling analysis relative to control; assay type: cell-based
Chain of Myosin light chain kinase, smooth muscle (Homo sapiens) (Q15746 whole entry): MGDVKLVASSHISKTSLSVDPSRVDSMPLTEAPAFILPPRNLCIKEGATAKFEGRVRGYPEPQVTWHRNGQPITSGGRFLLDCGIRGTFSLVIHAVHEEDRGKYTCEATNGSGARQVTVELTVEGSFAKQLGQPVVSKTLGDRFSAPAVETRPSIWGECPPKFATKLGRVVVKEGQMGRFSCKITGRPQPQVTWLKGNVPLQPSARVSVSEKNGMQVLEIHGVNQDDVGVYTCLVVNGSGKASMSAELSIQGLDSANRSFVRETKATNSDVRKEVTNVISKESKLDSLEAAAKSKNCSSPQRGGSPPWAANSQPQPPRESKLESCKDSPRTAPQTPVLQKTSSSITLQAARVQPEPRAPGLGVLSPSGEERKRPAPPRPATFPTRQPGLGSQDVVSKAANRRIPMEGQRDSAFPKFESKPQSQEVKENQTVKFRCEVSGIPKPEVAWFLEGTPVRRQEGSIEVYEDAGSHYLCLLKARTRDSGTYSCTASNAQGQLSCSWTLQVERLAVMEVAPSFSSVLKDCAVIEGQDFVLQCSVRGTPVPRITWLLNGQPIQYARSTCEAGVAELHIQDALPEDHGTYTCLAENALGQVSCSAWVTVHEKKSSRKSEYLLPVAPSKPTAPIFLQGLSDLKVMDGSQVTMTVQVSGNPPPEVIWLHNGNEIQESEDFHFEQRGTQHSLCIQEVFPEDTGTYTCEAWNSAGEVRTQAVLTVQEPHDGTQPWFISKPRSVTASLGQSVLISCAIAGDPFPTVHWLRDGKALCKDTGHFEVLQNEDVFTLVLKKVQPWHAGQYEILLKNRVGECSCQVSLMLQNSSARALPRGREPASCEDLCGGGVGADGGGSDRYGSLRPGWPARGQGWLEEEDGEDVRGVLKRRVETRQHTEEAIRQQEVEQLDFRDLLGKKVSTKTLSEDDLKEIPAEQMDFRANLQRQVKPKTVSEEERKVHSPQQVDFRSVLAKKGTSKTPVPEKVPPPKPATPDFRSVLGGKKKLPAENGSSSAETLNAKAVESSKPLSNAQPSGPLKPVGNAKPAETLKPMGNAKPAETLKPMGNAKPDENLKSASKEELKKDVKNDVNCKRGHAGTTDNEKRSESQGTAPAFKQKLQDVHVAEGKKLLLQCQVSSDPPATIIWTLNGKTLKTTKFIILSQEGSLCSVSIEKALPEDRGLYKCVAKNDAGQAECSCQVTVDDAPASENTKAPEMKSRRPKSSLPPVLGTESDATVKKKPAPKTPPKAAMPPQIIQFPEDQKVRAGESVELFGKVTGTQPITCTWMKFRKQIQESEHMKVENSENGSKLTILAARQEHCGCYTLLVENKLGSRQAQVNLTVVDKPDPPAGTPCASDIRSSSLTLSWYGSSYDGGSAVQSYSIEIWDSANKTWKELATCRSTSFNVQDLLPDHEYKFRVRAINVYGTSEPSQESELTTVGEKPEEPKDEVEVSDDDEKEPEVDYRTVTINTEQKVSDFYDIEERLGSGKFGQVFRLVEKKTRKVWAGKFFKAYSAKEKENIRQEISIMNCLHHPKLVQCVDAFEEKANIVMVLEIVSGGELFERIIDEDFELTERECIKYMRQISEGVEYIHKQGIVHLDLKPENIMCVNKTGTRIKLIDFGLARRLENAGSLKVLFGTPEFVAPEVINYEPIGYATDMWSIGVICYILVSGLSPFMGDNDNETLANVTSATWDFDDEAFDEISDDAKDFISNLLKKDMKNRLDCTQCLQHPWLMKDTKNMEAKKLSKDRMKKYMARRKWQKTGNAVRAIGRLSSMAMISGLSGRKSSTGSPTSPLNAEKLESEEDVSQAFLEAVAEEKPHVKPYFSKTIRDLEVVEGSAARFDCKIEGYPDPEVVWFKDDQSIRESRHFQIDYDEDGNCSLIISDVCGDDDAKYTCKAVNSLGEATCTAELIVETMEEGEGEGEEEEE

[6] = target: Mitogen-activated protein kinase 3 (Homo sapiens) (UniProt P27361); assay: Inhibition of Erk1 Lys2 labeling site harbouring DLKPSNLLINTTCDLK in human Huh-7 cell lysate at 1 uM by KiNativ Profiling analysis relative to control; assay type: subcellular
[7] = target: Protein kinase C alpha type (Homo sapiens) (UniProt P17252); assay: Inhibition of PKCa Lys2 labeling site in human Huh-7 cells at 1 uM by KiNativ Profiling analysis relative to control; assay type: cell-based
[8] = target: MAP/microtubule affinity-regulating kinase 3 (Homo sapiens) (UniProt P27448); assay: Inhibition of MARK3 Lys1 labeling site in human Huh-7 cell lysate at 1 uM by KiNativ Profiling analysis relative to control; assay type: subcellular
[9] = target: RAC-gamma serine/threonine-protein kinase (Homo sapiens) (UniProt Q9Y243); assay: Inhibition of AKT3 ATP Loop labeling site in human A-375 cells at 5 uM by KiNativ Profiling analysis relative to control; assay type: cell-based
[10] = target: Ribosomal protein S6 kinase alpha-5 (Homo sapiens) (UniProt O75582); assay: Inhibition of N-terminal RPS6KA5 kinase domain 1 (unknown origin) at 1 uM by Ambit Kinomescan binding assay relative to control
Chain of Ribosomal protein S6 kinase alpha-5 (Homo sapiens) (O75582 whole entry, looked up, the tested form may be a part): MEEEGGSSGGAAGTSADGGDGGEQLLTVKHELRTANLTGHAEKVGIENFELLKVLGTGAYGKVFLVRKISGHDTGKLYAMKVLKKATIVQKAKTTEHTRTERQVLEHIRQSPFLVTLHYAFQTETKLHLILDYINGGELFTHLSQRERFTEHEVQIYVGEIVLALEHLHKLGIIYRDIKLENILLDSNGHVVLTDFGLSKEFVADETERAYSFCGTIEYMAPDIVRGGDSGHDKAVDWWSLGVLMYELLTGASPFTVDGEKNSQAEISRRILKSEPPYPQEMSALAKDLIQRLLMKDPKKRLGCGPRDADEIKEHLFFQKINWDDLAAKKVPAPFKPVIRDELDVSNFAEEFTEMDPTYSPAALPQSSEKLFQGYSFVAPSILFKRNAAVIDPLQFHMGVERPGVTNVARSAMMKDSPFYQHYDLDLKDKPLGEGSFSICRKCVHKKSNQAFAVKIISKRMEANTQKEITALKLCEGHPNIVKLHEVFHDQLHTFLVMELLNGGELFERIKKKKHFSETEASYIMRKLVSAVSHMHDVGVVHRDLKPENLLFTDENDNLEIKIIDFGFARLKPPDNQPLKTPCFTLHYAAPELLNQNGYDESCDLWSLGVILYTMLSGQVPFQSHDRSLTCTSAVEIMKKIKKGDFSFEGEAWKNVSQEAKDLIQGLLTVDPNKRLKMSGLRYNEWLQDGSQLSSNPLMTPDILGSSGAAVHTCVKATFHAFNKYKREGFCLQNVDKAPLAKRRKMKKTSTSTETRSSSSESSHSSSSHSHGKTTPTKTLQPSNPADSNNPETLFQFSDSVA

[11] = target: Serine/threonine-protein kinase 33 (Homo sapiens) (UniProt Q9BYT3); assay: Inhibition of STK33 (unknown origin) at 1 uM by Ambit Kinomescan binding assay relative to control
Chain of Serine/threonine-protein kinase 33 (Homo sapiens) (Q9BYT3 whole entry, looked up): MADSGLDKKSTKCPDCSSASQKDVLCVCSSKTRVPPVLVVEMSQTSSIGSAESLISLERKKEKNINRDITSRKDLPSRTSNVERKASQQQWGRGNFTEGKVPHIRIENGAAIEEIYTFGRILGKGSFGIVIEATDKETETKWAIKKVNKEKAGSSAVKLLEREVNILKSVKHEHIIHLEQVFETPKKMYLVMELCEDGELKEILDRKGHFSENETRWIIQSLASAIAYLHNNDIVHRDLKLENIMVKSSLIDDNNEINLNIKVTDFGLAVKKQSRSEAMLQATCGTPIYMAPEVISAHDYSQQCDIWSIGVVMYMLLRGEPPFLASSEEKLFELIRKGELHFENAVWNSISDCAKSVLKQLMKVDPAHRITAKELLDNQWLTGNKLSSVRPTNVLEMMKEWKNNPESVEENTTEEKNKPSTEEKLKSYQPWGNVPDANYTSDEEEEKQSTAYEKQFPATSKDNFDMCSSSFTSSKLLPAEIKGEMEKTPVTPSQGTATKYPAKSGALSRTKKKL

[12] = target: Serine/threonine-protein kinase Nek4 (Homo sapiens) (UniProt P51957); assay: Inhibition of NEK4 Lys2 labeling site in human A-375 cells at 0.5 uM by KiNativ Profiling analysis relative to control; assay type: cell-based
[13] = target: Protein kinase C delta type (Homo sapiens) (UniProt Q05655); assay: Inhibition of PRKCD (unknown origin) at 1 uM by Ambit Kinomescan binding assay relative to control; values are per cent of control
[14] = target: Serine/threonine-protein kinase 35 (Homo sapiens) (UniProt Q8TDR2); assay: Inhibition of STK35 (unknown origin) at 1 uM by Ambit Kinomescan binding assay relative to control
Chain of Serine/threonine-protein kinase 35 (Homo sapiens) (Q8TDR2 whole entry): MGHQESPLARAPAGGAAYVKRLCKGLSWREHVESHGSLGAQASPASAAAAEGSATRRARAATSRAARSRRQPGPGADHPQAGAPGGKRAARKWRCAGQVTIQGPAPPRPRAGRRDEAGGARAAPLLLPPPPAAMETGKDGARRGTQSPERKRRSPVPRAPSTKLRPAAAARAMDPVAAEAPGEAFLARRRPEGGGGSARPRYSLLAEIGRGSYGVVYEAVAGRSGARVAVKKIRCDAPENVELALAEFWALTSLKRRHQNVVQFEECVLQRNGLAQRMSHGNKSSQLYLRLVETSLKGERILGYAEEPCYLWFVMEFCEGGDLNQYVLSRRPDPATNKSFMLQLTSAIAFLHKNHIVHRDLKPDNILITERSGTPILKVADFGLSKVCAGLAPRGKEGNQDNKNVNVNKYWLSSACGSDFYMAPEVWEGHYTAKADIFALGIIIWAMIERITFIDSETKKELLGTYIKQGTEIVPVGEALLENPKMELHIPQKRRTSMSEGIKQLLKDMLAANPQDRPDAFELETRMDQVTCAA

[15] = test system: Proto-oncogene tyrosine-protein kinase receptor Ret (Homo sapiens), P07949 [V804L]; assay: Inhibition of RET V804L mutant (unknown origin) at 1 uM by Ambit Kinomescan binding assay relative to control; values are per cent of control
[16] = target: Mitogen-activated protein kinase 11 (Homo sapiens) (UniProt Q15759); assay: Inhibition of p38 beta (unknown origin) at 1 uM by Ambit Kinomescan binding assay relative to control; values are per cent of control
[17] = target: Serine/threonine-protein kinase MARK1 (Homo sapiens) (UniProt Q9P0L2); assay: Inhibition of MARK1 Lys2 labeling site in human A-375 cells at 0.5 uM by KiNativ Profiling analysis relative to control; assay type: cell-based

Chain of Ephrin type-A receptor 3 (Homo sapiens) (P29320 whole entry): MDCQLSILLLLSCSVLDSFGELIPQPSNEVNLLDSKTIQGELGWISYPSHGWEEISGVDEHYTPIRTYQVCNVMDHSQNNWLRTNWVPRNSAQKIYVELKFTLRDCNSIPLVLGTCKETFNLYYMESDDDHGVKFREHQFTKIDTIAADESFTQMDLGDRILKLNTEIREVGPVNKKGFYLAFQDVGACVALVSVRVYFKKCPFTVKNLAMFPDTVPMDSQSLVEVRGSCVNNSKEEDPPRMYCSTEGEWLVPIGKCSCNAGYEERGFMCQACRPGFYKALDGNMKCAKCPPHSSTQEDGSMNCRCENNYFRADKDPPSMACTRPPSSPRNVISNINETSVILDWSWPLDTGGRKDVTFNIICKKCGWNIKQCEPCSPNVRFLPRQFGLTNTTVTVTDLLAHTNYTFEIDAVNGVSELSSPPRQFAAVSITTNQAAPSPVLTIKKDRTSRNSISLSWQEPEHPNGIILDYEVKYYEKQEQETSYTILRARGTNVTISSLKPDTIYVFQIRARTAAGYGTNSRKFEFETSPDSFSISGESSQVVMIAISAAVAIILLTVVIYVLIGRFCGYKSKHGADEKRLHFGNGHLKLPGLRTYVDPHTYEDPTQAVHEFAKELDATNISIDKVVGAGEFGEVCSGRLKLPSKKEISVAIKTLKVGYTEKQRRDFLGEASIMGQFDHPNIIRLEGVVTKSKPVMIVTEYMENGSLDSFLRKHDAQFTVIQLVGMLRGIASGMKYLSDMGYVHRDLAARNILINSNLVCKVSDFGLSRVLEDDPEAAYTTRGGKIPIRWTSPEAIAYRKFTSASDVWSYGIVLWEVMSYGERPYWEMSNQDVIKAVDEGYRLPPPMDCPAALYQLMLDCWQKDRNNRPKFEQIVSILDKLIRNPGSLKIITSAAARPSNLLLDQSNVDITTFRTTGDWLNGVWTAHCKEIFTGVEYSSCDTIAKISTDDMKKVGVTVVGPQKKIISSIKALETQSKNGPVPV

## CCN1CCN(Cc2ccc(NC(=O)c3ccc(C)c(Oc4ccnc5[nH]ccc45)c3)cc2C(F)(F)F)CC1
[1]
  inhibition: 3.4%
[2]
  inhibition: 12%
[3]
  inhibition at 1 µM: -15.7%
[4]
  inhibition: 72.4%
[5]
  inhibition: -9%

## CNc1cc(Oc2cc(C(=O)Nc3cc(N4CCN(C)CC4)cc(C(F)(F)F)c3)ccc2C)ncn1
[6]
  inhibition: -4.1%
[7]
  inhibition: 64.8%
[8]
  inhibition: 13.8%

## CCN1CCN(Cc2ccc(NC(=O)c3ccc(C)c(/C=C/c4cnc5[nH]ccc5c4OC)c3)cc2C(F)(F)F)CC1
[9]
  inhibition: 13.3%
[10]
  inhibition: 62%
[11]
  inhibition: 78%
[12]
  inhibition: 8.6%
[13]
  residual activity: 60%
[14]
  inhibition: 65%
[15]
  percent of control: 3.4%
[16]
  percent of control: 0.3%
[17]
  inhibition: 2.2%
